Results as given in ChEMBL document CHEMBL3112432, “Synthesis of 5α-cholestan-6-one derivatives and their inhibitory activities of NO production in activated microglia: discovery of a novel neuroinflammation inhibitor” (Bioorg Med Chem Lett, 2014).
Active and inactive are the calls of the source. The rule behind the calls is not given here.

Key:
BV-2 [1] = assay: Antiinflammatory activity in LPS-stimulated mouse BV2 cells assessed as inhibition of NO production after 24 hrs by Griess method; type: functional, cell-based
[2] = Antiinflammatory activity in LPS-stimulated mouse BV2 cells assessed as inhibition of NO production at 40 uM after 24 hrs by Griess method relative to control; type: functional; settings: BV-2, 24 h
[3] = Cytotoxicity against mouse BV2 cells assessed as cell viability at 40 uM after 24 hrs by MTT assay relative to control; type: cell-based, BV-2; settings: read-out: Activity
Mus musculus [4] = assay: Neuroprotective activity in mouse middle cerebral artery occlusion model assessed as reduction in activated microglial cells in medial periphery of cortical infarct area at 30 mg/kg, ip administered 1 hr prior to onset of ischemia measured after 24 hrs by Iba-1 staining-based microscopic analysis; type: functional, organism-based; set-up: dose 30 mg/kg
Mus musculus [5] = assay: Neuroprotective activity in ip dosed mouse middle cerebral artery occlusion model assessed as reduction in infarction volume administered 1 hr prior to onset of ischemia measured after 24 hrs by TTC staining-based microscopic analysis; type: functional, organism-based
BV-2 [6] = assay: Antiinflammatory activity in mouse BV2 cells assessed as inhibition of LPS-stimulated COX-2 protein expression at 40 uM preincubated for 30 mins followed by LPS-stimulation measured after 16 hrs by Western blotting analysis; type: functional, cell-based
BV-2 [7] = assay: Antiinflammatory activity in mouse BV2 cells assessed as inhibition of LPS-stimulated iNOS protein expression at 40 uM preincubated for 30 mins followed by LPS-stimulation measured after 16 hrs by Western blotting analysis; type: functional, cell-based
BV-2 [8] = assay: Antiinflammatory activity in mouse BV2 cells assessed as inhibition of LPS-stimulated COX-2 mRNA expression preincubated for 30 mins followed by LPS-stimulation by RT-PCR analysis; type: functional, cell-based
BV-2 [9] = assay: Antiinflammatory activity in mouse BV2 cells assessed as inhibition of LPS-stimulated TNF-alpha mRNA expression preincubated for 30 mins followed by LPS-stimulation by RT-PCR analysis; type: functional, cell-based
BV-2 [10] = assay: Antiinflammatory activity in mouse BV2 cells assessed as inhibition of LPS-stimulated iNOS mRNA expression preincubated for 30 mins followed by LPS-stimulation by RT-PCR analysis; type: functional, cell-based
BV-2 [11] = assay: Antiinflammatory activity in mouse BV2 cells assessed as inhibition of LPS-stimulated IL-1beta mRNA expression preincubated for 30 mins followed by LPS-stimulation by RT-PCR analysis; type: functional, cell-based

| Structure (SMILES) | inhibition (BV-2 [1]) | inhibition at 40 µM [2] | viability at 24 h, 40 µM [3] | Activity (Mus musculus [4]) | Activity (Mus musculus [5]) | inhibition (BV-2 [6]) | inhibition (BV-2 [7]) | inhibition (BV-2 [8]) | inhibition (BV-2 [9]) | inhibition (BV-2 [10]) | inhibition (BV-2 [11]) |
| --- | --- | --- | --- | --- | --- | --- | --- | --- | --- | --- | --- |
| C[C@H]([C@H](O)CO)[C@H]1CC[C@H]2[C@@H]3[C@H](F)C(=O)[C@H]4C[C@H](O)CC[C@]4(C)[C@H]3CC[C@]12C | Dose-dependent effect | 68.1% | 95.1% | – | – | – | – | – | – | – | – |
| COC(=O)CC[C@@H](C)[C@H]1CC[C@H]2[C@@H]3[C@H](O)C(=O)[C@H]4C[C@@H](F)CC[C@]4(C)[C@H]3CC[C@]12C | Dose-dependent effect | 64.2% | 92.4% | – | – | – | – | – | – | – | – |
| C[C@H]([C@H](O)CO)[C@H]1CC[C@H]2[C@@H]3CC(=O)[C@H]4C[C@H](O)CC[C@]4(C)[C@H]3CC[C@]12C | Dose-dependent effect | 60.4% | 95.9% | – | – | – | – | – | – | – | – |
| COC(=O)CC[C@@H](C)[C@H]1CC[C@H]2[C@@H]3[C@H](O)C(=O)[C@H]4C[C@H](O)CC[C@]4(C)[C@H]3CC[C@]12C | Dose-dependent effect | 73.6% | 95.4% | Active | Dose-dependent effect | Active | Active | Dose-dependent effect | Dose-dependent effect | Dose-dependent effect | Dose-dependent effect |
| COC(=O)CC[C@@H](C)[C@H]1CC[C@H]2[C@@H]3[C@H](O)C(=O)[C@H]4C[C@@H](O)CC[C@]4(C)[C@H]3CC[C@]12C | Dose-dependent effect | 71.1% | 96.3% | – | – | – | – | – | – | – | – |
| COC(=O)CC[C@@H](C)[C@H]1CC[C@H]2[C@@H]3[C@H](F)C(=O)[C@H]4C[C@H](O)[C@@H](F)C[C@]4(C)[C@H]3CC[C@]12C | Dose-dependent effect | 70% | 96.2% | – | – | – | – | – | – | – | – |
